Values joined by “and” are separate entries in the source; they are usually repeats but may differ in a detail not shown here. Equal entries are not always repeated.
Columns and labels:
GPBAR1 = target: T1, GPBAR1 (Homo sapiens, UniProt Q8TDU6); experiment: GPBAR1 transactivation (CRE-luciferase reporter) assay in HEK-293T cells; type: cell-based; details: for Emax: 18 h, read-out: GPBAR1 efficacy (% vs. TLCA); for Emax / GPBAR1 efficacy (% vs. TLCA): transactivation on HEK-293T cells, TLCA 10 μM = 100%; for EC50: transactivation assay, HEK-293T cells
T1 construct: expressed in transfected cells; host or cells: HEK-293T
T1 sequence (Q8TDU6 1-330): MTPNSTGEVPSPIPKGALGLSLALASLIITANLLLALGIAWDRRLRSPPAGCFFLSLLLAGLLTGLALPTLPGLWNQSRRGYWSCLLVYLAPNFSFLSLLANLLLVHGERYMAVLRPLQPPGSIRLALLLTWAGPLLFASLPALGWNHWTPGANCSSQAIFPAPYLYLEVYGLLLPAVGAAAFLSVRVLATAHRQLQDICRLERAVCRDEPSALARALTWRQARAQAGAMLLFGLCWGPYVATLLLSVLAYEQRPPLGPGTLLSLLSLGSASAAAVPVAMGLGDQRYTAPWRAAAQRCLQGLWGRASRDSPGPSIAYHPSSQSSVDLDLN
Description: (§1) HepG2 and HEK-293T cells were cultured at 37 °C in minimal essential medium (MEM) and Dulbecco’s Modified Eagle Medium (DMEM) respectively, supplemented with 10% fetal bovine serum, 1% L-glutamine, 100 U/mL penicillin, and 100 μg/mL streptomycin. To investigate FXR-mediated transactivation, the HepG2 cells were transfected with 200 ng of the reporter vector p (hsp27)TK-Luc containing the FXR response element IR1 cloned from the promoter of heat shock protein 27 (hsp27), plus 100 ng pSG5-FXR, 100 ng pSG5-RXR, and 100 ng pGL4.70 Renilla. To evaluate GPBAR1 mediated transactivation, HEK-293T cells were transfected with 200 ng of human pGL4.29 (Promega), a reporter vector containing a cAMP response element (CRE) that drives the transcription of the luciferase reporter gene luc2P, with 100 ng of pCMVSPORT6-human GPBAR1, and with 100 ng of pGL4.70. At 24 h post-transfection, cells were stimulated 18 h with 10 μM TLCA (taurolithocholic acid a GPBAR1 agonist) or CDCA (FXR agonist) and compounds. To calculate the EC50 on FXR and GPBAR1, dose-response curves were performed in HEK-293T cells transfected as described above and then treated with increasing concentrations of compounds (from 0.1 to 50 µM). After treatments, cells were lysed in 100 μL of lysis buffer (25 mM Tris-phosphate, pH 7.8; 2 mM DTT; 10% glycerol; 1% Triton X-100), and 10 μL of cellular lysate was assayed for luciferase activity using the Firfly &Renilla Luciferase assay kit (Biotium). Luminescence was measured using Glomax 20/20 luminometer (Promega). Luciferase activities were assayed and normalized with Renilla activities.

PPARα = target: T2, PPARα (Homo sapiens, UniProt Q07869); experiment: AlphaScreen coactivator (SRC-1) recruitment assay on PPARα; type: biochemical; details: AlphaScreen SRC-1 recruitment; compounds at 50 µM (footnote); fenofibrate = 100%
T2 construct: 20 nM PPARα LBD GST fused (Thermo Scientific); purchased Thermo Scientific
T2 sequence (Q07869 239-466 limits assumed): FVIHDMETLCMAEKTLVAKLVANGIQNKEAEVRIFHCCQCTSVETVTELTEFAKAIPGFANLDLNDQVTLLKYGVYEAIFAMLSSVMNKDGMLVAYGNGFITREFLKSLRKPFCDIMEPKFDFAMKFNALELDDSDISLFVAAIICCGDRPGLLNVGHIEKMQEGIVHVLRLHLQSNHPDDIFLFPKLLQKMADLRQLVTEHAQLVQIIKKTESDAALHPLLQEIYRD
Description: Compounds’ ability to mediate cofactor recruitment was evaluated by employing AlphaScreen GST Detection Kit (PerkinElmer). Particularly, FXR agonism was evaluated employing 10 nM FXR-LBD GST-fused (Thermo Scientific) and 30 nM of biotinylated SRC1 peptide ([…]) in the presence of 20 μg/mL donor and acceptor beads and in buffer containing 50 mM Tris-HCl (pH7.4), 20 mM KCl, 1 mM DTT, and 0.1% BSA. For PPARα assay, a buffer containing 50 mM MOPS, 50 mM NaF, 0.05 mM CHAPS, and 0.05% BSA (pH = 7.4) was used, and 20 nM PPARα LBD GST fused (Thermo Scientific) and 60 nM of biotinylated SRC1 peptide were employed. Both acceptor and donor beads were added to reach 20 μg/mL final concentration. Incubations were performed in a final volume of 25 μL employing 384 wells Optiplate and Alpha signal was measured with Envision 2,105 (Perkin Elmer) multimode plate reader. […]

FXR [1] = target: T3, FXR (Homo sapiens, UniProt Q96RI1); experiment: AlphaScreen coactivator (SRC-1) recruitment assay on FXR; type: biochemical; details: for FXR efficacy (% vs. CDCA): AlphaScreen SRC-1 recruitment, compounds at 10 μM, CDCA = 100%
T3 sequence (Q96RI1 262-486 limits assumed): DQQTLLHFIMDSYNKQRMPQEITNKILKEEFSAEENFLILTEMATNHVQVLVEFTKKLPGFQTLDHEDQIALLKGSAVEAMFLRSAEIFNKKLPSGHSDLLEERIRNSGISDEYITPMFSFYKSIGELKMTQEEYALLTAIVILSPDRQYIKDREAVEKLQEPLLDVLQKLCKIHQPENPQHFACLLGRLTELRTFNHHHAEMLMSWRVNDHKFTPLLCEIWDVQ
Description: Compounds’ ability to mediate cofactor recruitment was evaluated by employing AlphaScreen GST Detection Kit (PerkinElmer). Particularly, FXR agonism was evaluated employing 10 nM FXR-LBD GST-fused (Thermo Scientific) and 30 nM of biotinylated SRC1 peptide ([…]) in the presence of 20 μg/mL donor and acceptor beads and in buffer containing 50 mM Tris-HCl (pH7.4), 20 mM KCl, 1 mM DTT, and 0.1% BSA. For PPARα assay, a buffer containing 50 mM MOPS, 50 mM NaF, 0.05 mM CHAPS, and 0.05% BSA (pH = 7.4) was used, and 20 nM PPARα LBD GST fused (Thermo Scientific) and 60 nM of biotinylated SRC1 peptide were employed. Both acceptor and donor beads were added to reach 20 μg/mL final concentration. Incubations were performed in a final volume of 25 μL employing 384 wells Optiplate and Alpha signal was measured with Envision 2,105 (Perkin Elmer) multimode plate reader. For efficacy, compounds were tested at 10 μM for FXR and 50 μM for PPARα.

FXR [2] = target: T4, FXR (Homo sapiens, UniProt Q96RI1); experiment: FXR transactivation (luciferase reporter) assay in HepG2 cells; type: cell-based; details: for EC50: HepG2 cells
T4 construct: expressed in transfected cells; host or cells: HepG2 (the text says EC50 dose-response curves were run in HEK-293T)
T4 sequence (Q96RI1 1-486): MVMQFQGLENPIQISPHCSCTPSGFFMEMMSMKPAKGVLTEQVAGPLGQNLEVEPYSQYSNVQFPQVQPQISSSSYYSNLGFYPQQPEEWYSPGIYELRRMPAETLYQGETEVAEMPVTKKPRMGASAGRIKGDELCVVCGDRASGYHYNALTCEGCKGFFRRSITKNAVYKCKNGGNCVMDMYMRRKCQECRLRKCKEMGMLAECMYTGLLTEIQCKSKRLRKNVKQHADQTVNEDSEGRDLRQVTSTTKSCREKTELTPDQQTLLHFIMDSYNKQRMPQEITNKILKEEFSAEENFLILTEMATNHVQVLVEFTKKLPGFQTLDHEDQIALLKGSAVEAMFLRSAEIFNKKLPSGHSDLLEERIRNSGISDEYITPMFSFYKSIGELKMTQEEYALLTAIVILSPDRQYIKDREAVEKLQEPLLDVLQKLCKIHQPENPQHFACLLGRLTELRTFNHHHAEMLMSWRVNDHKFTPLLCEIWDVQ
T4 sequence (P19793 1-462 partner): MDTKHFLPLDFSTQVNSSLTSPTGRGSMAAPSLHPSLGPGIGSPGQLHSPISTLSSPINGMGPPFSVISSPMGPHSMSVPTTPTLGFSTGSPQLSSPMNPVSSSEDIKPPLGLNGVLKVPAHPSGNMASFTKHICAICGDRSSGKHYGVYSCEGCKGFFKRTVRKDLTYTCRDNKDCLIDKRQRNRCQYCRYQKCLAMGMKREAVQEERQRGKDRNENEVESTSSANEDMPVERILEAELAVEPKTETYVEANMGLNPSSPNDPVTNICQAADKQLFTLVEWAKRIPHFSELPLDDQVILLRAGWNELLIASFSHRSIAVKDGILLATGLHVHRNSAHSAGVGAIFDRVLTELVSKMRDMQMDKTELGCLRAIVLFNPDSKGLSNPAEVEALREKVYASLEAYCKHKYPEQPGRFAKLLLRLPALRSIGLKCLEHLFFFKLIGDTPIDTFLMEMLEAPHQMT
Description: as §1

SMILES: CC[C@@H]1C2C[C@H](OC(=O)C(C)(C)Oc3ccc(Cl)cc3)CC[C@]2(C)C2CC[C@@]3(C)C(CC[C@@H]3[C@H](C)CCO)C2[C@@H]1O (stereo partly drawn) [Compound 2]
- Emax (GPBAR1): 46 ± 16%

SMILES: CC[C@@H]1C2C[C@H](O)CC[C@]2(C)C2CC[C@@]3(C)C(CC[C@@H]3[C@H](C)CCOC(=O)C(C)(C)CCCOc3cc(C)ccc3C)C2[C@@H]1O (stereo partly drawn) [Compound 7]
- Emax (GPBAR1): 14 ± 1.3%
- PPARα efficacy (% vs. fenofibrate) (PPARα): 22 ± 18%
- FXR efficacy (% vs. CDCA) (FXR [1]): 4.1 ± 0.6%

SMILES: CC[C@@H]1C2C[C@H](OC(=O)C(C)(C)CCCOc3cc(C)ccc3C)CC[C@]2(C)C2CC[C@@]3(C)C(CC[C@@H]3[C@H](C)CCOC(=O)C(C)(C)CCCOc3cc(C)ccc3C)C2[C@@H]1O (stereo partly drawn) [Compound 9]
- Emax (GPBAR1): 28.5 ± 0.4%
- FXR efficacy (% vs. CDCA) (FXR [1]): 5.1 ± 1.9%

SMILES: CC[C@@H]1C2C[C@H](OC(=O)C(C)(C)CCCOc3cc(C)ccc3C)CC[C@]2(C)C2CC[C@@]3(C)C(CC[C@@H]3[C@H](C)CCO)C2[C@@H]1O (stereo partly drawn) [Compound 8]
- Emax (GPBAR1): 29.4 ± 5.1%
- PPARα efficacy (% vs. fenofibrate) (PPARα): 5.3 ± 0.8%

SMILES: CC[C@@H]1C2C[C@H](O)CC[C@]2(C)C2CC[C@@]3(C)C(CC[C@@H]3[C@H](C)CCOC(=O)C(C)(C)Oc3ccc(C(=O)c4ccc(Cl)cc4)cc3)C2[C@@H]1O (stereo partly drawn) [Compound 4]
- Emax (GPBAR1): 41 ± 3%
- PPARα efficacy (% vs. fenofibrate) (PPARα): 13 ± 3%
- FXR efficacy (% vs. CDCA) (FXR [1]): 14.0 ± 1.8%

SMILES: CC[C@@H]1C2C[C@H](OC(=O)C(C)(C)Oc3ccc(Cl)cc3)CC[C@]2(C)C2CC[C@@]3(C)C(CC[C@@H]3[C@H](C)CCOC(=O)C(C)(C)Oc3ccc(Cl)cc3)C2[C@@H]1O (stereo partly drawn) [Compound 3]
- EC50 (FXR [2]): 25 ± 0.01 µM
- Emax (GPBAR1): 101%
- EC50 (GPBAR1): 1800 ± 350 nM
- GPBAR1 efficacy (% vs. TLCA) (GPBAR1): 101.0 ± 0.4%
- PPARα efficacy (% vs. fenofibrate) (PPARα): 27 ± 10%
- FXR efficacy (% vs. CDCA) (FXR [1]): 48% and 48.0 ± 5.5%
- EC50 (FXR [1]; AlphaScreen coactivator recruitment, FXR with SRC-1): 17.9 ± 2.6 µM

SMILES: CCC1C(O)C2C3CCC(C(C)CC(=O)O)C3(C)CCC2C2(C)CCC(O)CC12 (stereo not drawn) [BAR505, reference compound]
- FXR efficacy vs. CDCA (transactivation) (FXR [2]): 457%
- EC50 (FXR [2]): 1.9 ± 0.14 µM
- EC50 (GPBAR1): 3200 ± 1100 nM
- GPBAR1 efficacy (% vs. TLCA) (GPBAR1): 103.6%
- PPARα efficacy (% vs. fenofibrate) (PPARα): 40%

SMILES: CC[C@@H]1C2C[C@H](OC(=O)C(C)(C)Oc3ccc(C(=O)c4ccc(Cl)cc4)cc3)CC[C@]2(C)C2CC[C@@]3(C)C(CC[C@@H]3[C@H](C)CCOC(=O)C(C)(C)Oc3ccc(C(=O)c4ccc(Cl)cc4)cc3)C2[C@@H]1O (stereo partly drawn) [Compound 6]
- Emax (GPBAR1): 30 ± 17%
- PPARα efficacy (% vs. fenofibrate) (PPARα): 1.7 ± 0.5%

SMILES: CC[C@@H]1C2C[C@H](OC(=O)C(C)(C)Oc3ccc(C(=O)c4ccc(Cl)cc4)cc3)CC[C@]2(C)C2CC[C@@]3(C)C(CC[C@@H]3[C@H](C)CCO)C2[C@@H]1O (stereo partly drawn) [Compound 5]
- Emax (GPBAR1): 40 ± 0.7%
- PPARα efficacy (% vs. fenofibrate) (PPARα): 6.6 ± 1.9%

Reference: paper PMC11289669, “BAR502/fibrate conjugates: synthesis, biological evaluation and metabolic profile” (Frontiers in Chemistry, 2024)
